Measured values as given in US20100324017A1, “ACYLGUANIDINE DERIVATIVE” (priority 2007, published 2010).
Counter-ions that a name gives are not always drawn.

Key:
human 5-HT5A receptor = molecular target: T1, human 5-HT5A receptor (Homo sapiens, UniProt P47898); test: Test of human 5-HT5A receptor binding inhibition ([3H]5-CT, HEK293 cell membrane); details: [3H]5-CT binding, membrane of HEK293 cell expressing human 5-HT5A receptor
T1 construct: expressed in transfected cells; membrane preparation
Protocol: An ORF of a human 5-HT5A receptor (Genbank AF498985) was cloned from a human hippocampal cDNA library, and then inserted into a pCR2.1 vector (Invitrogen), and Escherichia coli having the plasmid was mass cultured. Next, the human 5-HT5A receptor full-length cDNA sequence was analyzed, recombined into a pCDNA3.1 vector (Invitrogen) as an expression vector, and mass cultured. A human embryonic kidney-induced cell HEK293 cell (ATCC) was seeded, and the resulting expression plasmid (1 μg) above was added thereto together with LIPOFECTAMINE 2000 (Invitrogen; 2 μl), a gene was introduced into the HEK293 cell, and then Geneticin (G418 sulfate 500 μg/ml; Kanto Chemical Co., Inc.) was used as a drug-resistant marker to screen the expressing cell. Thus prepared gene-expressing recombinant cell was cultured in a D-MEM, 10% FCS, 1% Pc./Sm., 500 μg/ml G418 culture medium for 3 days. This experimental operation was conducted in accordance with a gene operation experiment manual of a known method (Sambrook, J. et al, Molecular Cloning-A Laboratory Manual“, Cold Spring Harabor Laboratory, NY, 1989), etc., an instruction appended in a reagent or the like.
(1) Preparation of a Membrane from an HEK293 Cell Forcibly Expressing a Human 5-HT5A Receptor
An HEK293 cell forcibly expressing a human 5-HT5A receptor was cultured in an F500 plate, and scraped for collection using a scraper. After centrifugation, the precipitates were collected and an incubation buffer (50 mM Tris (HCl) PH 7.4, 10 mM Mg504, 0.5 mM EDTA) was added thereto. After homogenization, it was further centrifuged, an incubation buffer was added to the precipitate, and the mixture was well suspended. These operations were repeatedly conducted, the protein concentration was then measured, and the preparation of a membrane was completed.
(2) Experiment on Human 5-HT5A Receptor Binding Inhibition
The compound to be tested (0.3 to 300 nM) and a 100 μM 5-CT solution in DMSO were added to a 96-well plate at 2 μl/well. The number of the wells to be measured under the same condition in one experiment was set at 2, and an average value thereof was used. It was suspended in an incubation buffer, and a HEK293 cell membrane forcibly expressing a human 5-HT5A receptor that had been prepared at 200 μg/ml was added thereto at 100 μl/well. The mixture was incubated at room temperature for 15 minutes, and a [^3H]5-CT solution (2 nM [^3H]5-CT, an incubation buffer) was then added thereto at 100 μl/well.
Separate from this, 100 μl of the solution was dispersed to a liquid scintillation vial, 2 ml of Aquasol II (registered trademark) was added thereto, followed by stirring, and the radioactivity was then measured with a liquid scintillation counter. The solution was incubated at 37° C. for 60 minutes. The reaction liquid was sucked to a 96-well GF/C filter plate that had been preliminarily treated with 0.2% polyethyleneimine, and washed six times with an ice-cooled 50 mM Tris (pH 7.5) buffer. The GF/C filter plate was dried.
MicroscintTMPS (registered trademark) was added thereto at 40 μl/well. The radioactivity remaining on the GF/C filter plate was measured in a top counter.
For the inhibitory activity for the binding of the [^3H]5-CT by the compound to be tested in each experiment, IC50 value was calculated by taking the radioactivity when only DMSO was added as 0% inhibition, and the radioactivity when 1 μM 5-CT was added as 100% inhibition. Apart from this, a Ki value was calculated from the Kd value of the [^3H]5-CT that had been determined by Scatchard analysis.
Ki=IC50 (1+Concentration of the ligands added/Kd (4.95 nM))

[1] = system: MK-801-induced overactivity; test: MK-801-induced overactivity in mice, kinetic momentum by infrared sensor; format: in vivo; details: mouse, oral, MK-801 0.3 mg/kg i.p.
Protocol: Evaluation of Various Drugs Relative to a Drug for Increasing the Kinetic Momentum of Mice (Methane Phetamine, MK-801) (Method for Measuring a Kinetic Momentum by Discharge of an Infrared Ray)
The effect of improving the positive symptoms and the negative symptoms of schizophrenia by the compound (I) was evaluated by measuring the kinetic momentum that had been […] with administration of the compound in a model causing the symptoms by methane phetamine (which is hereinafter simply referred to as MAP) and MK-801.
Species: Male ICR mouse/number of animals (number of animals per group): 8 to 12 animals per group
The animal was left in a laboratory for 1 hour or longer to be acclimated to the environment, and the animal was taken from the feeding cage, orally administered with a compound to be tested, and then returned to the feeding cage. After 30 minutes, it was put into a cage for measurement, and the kinetic momentum of just the compound to be tested was measured. Further, after 30 minutes, the animal was taken out, and intraperitoneally administered with a drug for increasing kinetic momentum (MAP; 1 mg/kg or MK-801; 0.3 mg/kg, all dissolved in physiological saline), and its kinetic momentum was measured for a certain time (60 minutes) using a device for measuring the kinetic momentum by means of an infrared ray sensor (CompACT AMS, Muromachi Kikai Co., Ltd.). Also, the test was carried out under non-fasting.
The 60 minutes of measurements was classified into three groups: a first half 30 minutes, a second half 30 minutes, and a total 60 minutes. For a normal mouse (a mouse administered with physiological saline) and a mouse administered with the drug for increasing kinetic momentum, a Student's T test was used for evaluation in each interval. For the group administered with the compound to be tested, a solvent (vehicle) group and a Dunnett's T test were carried out and evaluated. For the evaluation, in case where there was a significant (P<0.05) difference for the total 60 minutes, it was considered to be effective.

[2] = dose 0.01 mg/kg, total 60 minutes, P<0.05

T1 sequence (P47898 whole entry): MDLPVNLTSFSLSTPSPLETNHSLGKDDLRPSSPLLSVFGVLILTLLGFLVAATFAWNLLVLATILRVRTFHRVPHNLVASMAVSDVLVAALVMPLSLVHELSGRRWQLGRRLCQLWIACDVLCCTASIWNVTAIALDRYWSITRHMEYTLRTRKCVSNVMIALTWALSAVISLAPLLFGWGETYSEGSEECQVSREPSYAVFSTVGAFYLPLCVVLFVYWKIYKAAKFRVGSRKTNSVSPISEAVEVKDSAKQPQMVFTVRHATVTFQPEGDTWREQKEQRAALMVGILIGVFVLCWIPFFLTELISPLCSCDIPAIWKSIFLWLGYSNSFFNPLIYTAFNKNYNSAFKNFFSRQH

Compound	Ki (human 5-HT5A receptor) [nM]	inhibition of MK-801-induced overactivity [1, 2]	inhibition of MK-801-induced overactivity ([1]; dose 0.1 mg/kg)
N/C(=N\C(=O)c1ccc2c3ccccc3n(C3CCOCC3)c2c1)NCc1ccccc1 [Example 159]	1.6		
N/C(=N\C(=O)c1ccc2c3ccccc3n(C3CCOCC3)c2c1)NC1CC1 [Example 164]	≤ 50		
CC(C)n1c2ccccc2c2ccc(C(=O)N=C(N)N)cc21 [Example 1, N-(diaminomethylene)-9-isopropyl-9H-carbazole-2-carboxamide]	0.69		
Cc1cc(C(=O)N=C(N)N)cc2c1c1c(F)cccc1n2C1CCOCC1 [Example 138]	≤ 50	significantly inhibited	
NC(N)=NC(=O)c1ccc2c3ccccc3n(Cc3ccccc3)c2c1 [Example 37]	8.3	significantly inhibited	
CC(C)N/C(N)=N\C(=O)c1ccc2c3ccccc3n(C3CCOCC3)c2c1 [Example 149]	≤ 50		
Cc1cccc2c1c1c(F)cc(C(=O)N=C(N)N)cc1n2C1CCOCC1 [Example 145]	≤ 50		
Cc1cc(Cn2c3ccccc3c3ccc(C(=O)N=C(N)N)cc32)no1 [Example 141]	≤ 50		
NC(N)=NC(=O)c1ccc2c3ccc(F)cc3n(C3CCOCC3)c2c1 [Example 114]	≤ 50		
N/C(=N\C(=O)c1ccc2c3ccccc3n(C3CCOCC3)c2c1)NCC1CCCCC1 [Example 204]	≤ 50		
N/C(=N\C(=O)c1ccc2c3ccccc3n(C3CCOCC3)c2c1)NCc1cccs1 [Example 180]	≤ 50		
NC(N)=NC(=O)c1ccc2c3ccccc3n(C3CCOCC3)c2c1 [Example 144]	≤ 50		
N/C(=N\C(=O)c1ccc2c3ccccc3n(C3CCOCC3)c2c1)NCC1CC1 [Example 178]	≤ 50	significantly inhibited	
N#CCN1CCC(n2c3ccccc3c3ccc(C(=O)N=C(N)N)cc32)CC1 [Example 191]	≤ 50		
CO[C@H]1CC[C@@H](n2c3ccccc3c3ccc(C(=O)N=C(N)N)cc32)CC1 [Example 148]	≤ 50		
NC(N)=NC(=O)c1ccc2c3ccccc3n(C3CCN(c4ccccc4)CC3)c2c1 [Example 198]	≤ 50		
Cc1ccsc1Cn1c2ccccc2c2ccc(C(=O)N=C(N)N)cc21 [Example 177]	≤ 50		
NC(N)=NC(=O)c1ccc2c3ccccc3n(-c3ccccn3)c2c1 [Example 102]	5.3		
N/C(=N\C(=O)c1ccc2c3ccccc3n(C3CCOCC3)c2c1)NCC1COCCO1 (stereo not drawn) [Example 186]	≤ 50		
N/C(=N\C(=O)c1ccc2c3ccccc3n(C3CCOCC3)c2c1)NCc1ccco1 [Example 179]	≤ 50		
NC(N)=NC(=O)c1ccc2c3ccccc3n(C3CCC(F)(F)CC3)c2c1 [Example 129]	≤ 50		significantly inhibited
COc1ccccc1CN/C(N)=N/C(=O)c1ccc2c3ccccc3n(C3CCOCC3)c2c1 [Example 195]	≤ 50		
NC(N)=NC(=O)c1ccc2c3ccccc3n(C3CCCCC3)c2c1 [Example 24]	≤ 50		significantly inhibited
NC(N)=NC(=O)c1ccc2c3ccccc3n(Cc3ccc(F)s3)c2c1 [Example 116]	≤ 50		
CC(C)S(=O)(=O)n1c2ccccc2c2ccc(C(=O)N=C(N)N)cc21 [Example 28]	4.5		

Compound	Ki (human 5-HT5A receptor) [nM]	inhibition of MK-801-induced overactivity [1, 2]	inhibition of MK-801-induced overactivity ([1]; dose 0.1 mg/kg)
N/C(=N\C(=O)c1ccc2c3ccccc3n(C3CCOCC3)c2c1)NC1CCOCC1 [Example 182]	≤ 50		
N/C(=N\C(=O)c1ccc2c3ccccc3n(C3CCOCC3)c2c1)NCC1CCOCC1 [Example 206]	≤ 50		
NC(N)=NC(=O)c1ccc2c(c1)[nH]c1ccccc12 [Example 2, N-(diaminomethylene)-9H-carbazole-2-carboxamide]	2.8		
COCCCN/C(N)=N/C(=O)c1ccc2c3ccccc3n(C3CCOCC3)c2c1 [Example 162]	≤ 50		
COCCN/C(N)=N/C(=O)c1ccc2c3ccccc3n(Cc3cccs3)c2c1 [Example 210]	≤ 50		
N/C(=N/C(=O)c1ccc2c3ccccc3n(C3CCOCC3)c2c1)NCCO [Example 126]	≤ 50		
CC(C)n1c2cc(C(=O)N=C(N)N)ccc2c2c(O)cccc21 [Example 152]	≤ 50		
NC(N)=NC(=O)c1ccc2c3ccccc3n([C@@H]3CCNC3)c2c1 [Example 175]	≤ 50		
N/C(=N\C(=O)c1ccc2c3ccccc3n(C3CCOCC3)c2c1)Nc1ccccc1 [Example 181]	≤ 50		
COc1ccc(CN/C(N)=N/C(=O)c2ccc3c4ccccc4n(C4CCOCC4)c3c2)cc1 [Example 193]	≤ 50		
NC(N)=NC(=O)c1ccc2c3ccccc3n([C@H]3CC[C@@H](F)CC3)c2c1 [Example 143]	≤ 50		
CSc1cccc2c1c1ccc(C(=O)N=C(N)N)cc1n2C1CCOCC1 [Example 147]	≤ 50		
N/C(=N\C(=O)c1ccc2c3ccccc3n(C3CCOCC3)c2c1)NC[C@H]1CCCO1 [Example 188]	≤ 50		
NC(N)=NC(=O)c1ccc2c3c(Cl)cccc3n(C3CCOCC3)c2c1 [Example 115]	≤ 50		
COc1cccc(OC)c1CNC(N)=NC(=O)c1ccc2c3ccccc3n(C3CCOCC3)c2c1 [Example 212]	≤ 50		
NC(N)=NC(=O)c1cc(F)c2c3ccccc3n(C3CCOCC3)c2c1 [Example 11, N-(diaminomethylene)-4-fluoro-9-(tetrahydro-2H-pyran-4-yl)-9H-carbazole-2-carboxamide hydrochloride]	≤ 50		
CN/C(N)=N/C(=O)c1ccc2c3ccccc3n(C3CCOCC3)c2c1 [Example 120]	2.2		
NC(N)=NC(=O)C1CCc2c(n(-c3ccccc3)c3ccccc23)C1 (stereo not drawn) [Example 220]	≤ 50		
NC(N)=NC(=O)c1ccc2c3c(F)ccc(F)c3n(C3CCOCC3)c2c1 [Example 140]	≤ 50		
N/C(=N\C(=O)c1ccc2c3ccccc3n(C3CCOCC3)c2c1)NCCc1ccccc1 [Example 196]	≤ 50		
NC(N)=NC(=O)c1ccc2c3ccccc3n(C(CF)CF)c2c1 [Example 160]	≤ 50		
N/C(=N\C(=O)c1ccc2c3ccccc3n(C3CCOCC3)c2c1)NCC1CCCC1 [Example 205]	≤ 50		
CC(C)C(=O)n1c2ccccc2c2ccc(C(=O)N=C(N)N)cc21 [Example 27]	0.66		
N/C(=N\C(=O)c1ccc2c3ccccc3n(C3CCOCC3)c2c1)NC[C@@H]1CCCO1 [Example 187]	≤ 50		
